From patent publication US20130034613A1, “FORMULATIONS OF PHOSPHITES” (Ceradis B.V., priority 2009, published 2013)

Key:
Assay type in all cases: in vivo
[1] = tested on: garden cress (Lepidium sativum) seedlings; experiment: Phytotoxicity towards garden cress seedlings after spraying; conditions: summary of Table 2
Procedure: Two compositions of potassium phosphite are prepared, one with and one without calcium lignosulfonate (Borresperse CA®, Borregaard LignoTech Ltd, Germany). The formulation and the concentration in the spray solution are calculated in such a way that the dosage of phosphite is the same for both compositions (120 mM=14.4 g potassium phosphite/1 spray solution). A control is added in which the adjuvants alone (without lignosulfonate or phosphite) are tested.
Various adjuvants are added to the two compositions: alcohol ethoxylate (commercial product: Genapol EP 2584, Clariant, Germany), di-octyl sulfosuccinate (commercial product Emulsogen SF8, Clariant, Germany), quaternary ammonium surfactant (commercial product Geronol CF/PN-20N, Rhodia, France) and ethoxylated tallow amine (commercial product Ethomeen S25, Akzo Nobel, The Netherlands). All adjuvant products arc added at a concentration of 5 g/l spray solution. For both compositions, a control is added without adjuvant.
Garden cress seedlings are grown in plastic boxes (100 seeds/box) on mineral sand. Boxes were kept at 22° C. One week old seedlings are sprayed with the various spray solutions until run-off of the solutions occurs. Phytotoxicity is observed three days after spraying. The percentage of seedlings dead or showing phytotoxicity symptoms is estimated. […]

rose = experiment: Phytotoxicity towards rose after spraying (Example 2); conditions: summary of Table 3
Description: The experimental design is a randomized block design with a plot size of 3 plants per plot. The experiment has 4 replications. Plants are sprayed with solution until run-off occurs. The composition and the dose rate of the different treatments are the same as in example 1, except that calcium lignosulfonate was replaced by sodium lignosulfonate (Borresperse NA®, Borregaard LignoTech Ltd, Germany).
Phytotoxicity is observed one week after spraying. Per plant, the percentage leaf area dead or showing phytotoxicity symptoms is estimated.

[2] = tested on: grapevine cultivar Merlot; experiment: Phytotoxicity towards grapevine after spraying; conditions: summary of Table 4
Description: The experimental design is a randomized block design with a plot size of 3 plants per plot. The experiment has 4 replications. Plants are sprayed with solution until run-off occurs. The composition and the dose rate of the different treatments are the same as in example 1.
Phytotoxicity is observed one week after spraying. Per plant, the percentage leaf area dead or showing phytotoxicity symptoms was estimated.

Measured: phytotoxicity (in words)

potassium phosphite
phytotoxic: all assays above
